Results published in patent publication US5312923A, “Process for preparing fibrinogen receptor antagonists” (Merck & Co., Inc., priority 1993, dated 1994).

These molecules were tested on ADP-stimulated platelets (assay: Inhibition of ADP-stimulated platelet aggregation (gel-filtered human platelets)). Conditions: read-out: IC50 (concentration required to inhibit aggregation by 50% relative to a control lacking the compound), gel-filtered human platelets 2×10^8 per ml, fibrinogen 100 ug/ml, Ca^2+ 1 mM, 10 mM ADP, 37° C.
Format: cell-based
Procedure: The activity of these fibrinogen receptor antagonists is illustrated below. One test used to evaluate fibrinogen receptor antagonist activity is based on evaluation of inhibition of ADP-stimulated platelets. Aggregation requires that fibrinogen bind to and occupy the platelet fibrinogen receptor site. Inhibitors of fibrinogen binding inhibit aggregation. […] Platelet aggregation is measured at 37° C. in a Chronolog aggregometer. The reaction mixture contains gel-filtered human platelets (2×10^8 per ml), fibrinogen (100 micrograms per ml (ug/ml)), Ca^2+ (1 mM), and the fibrinogen receptor antagonists tested. The aggregation is initiated by adding […] ADP 1 minute after the other components are added. The reaction is then allowed to proceed for at least 2 minutes. The extent of inhibition of aggregation is expressed as the percentage of the rate of aggregation observed in the absence of inhibitor. […] Inhibition of ADP-stimulated platelets is shown below in Table 1, which compares the concentration (dosage) of fibrinogen receptor antagonist required to inhibit aggregation by 50% relative to a control lacking the fibrinogen receptor antagonist.

Row | IC50 [nM] | SMILES
1 | 15 | CCCCS(=O)(=O)N[C@@H](Cc1ccc(OCCCCC2CCNCC2)cc1)C(=O)O
2 | 63 | CS(=O)(=O)N[C@@H](Cc1ccc(OCCCCC2CCNCC2)cc1)C(=O)O
3 | 18 | O=C(O)[C@H](Cc1ccc(OCCCCC2CCNCC2)cc1)NS(=O)(=O)Cc1ccccc1
4 | 18 | O=C(O)[C@H](Cc1ccc(OCCCCC2CCNCC2)cc1)NS(=O)(=O)c1ccccc1
5 | 29 | O=C(O)[C@H](Cc1ccc(OCCCCC2CCNCC2)cc1)NS(=O)(=O)CCc1ccccc1
